Assay results taken from patent US20150204836A1, “SOLUBLE METAL SENSOR COMPOUNDS AND METHODS FOR MAKING AND USING THE SAME” (UNIVERSITY OF UTAH RESEARHC FOUNDATION, priority 2012, published 2015).
Converted amounts (≈) assume the structure as drawn.

How the values were obtained:
[1] = Spectral properties (absorbance, extinction coefficient, emission) in various solvents; assay type: physicochemical
[2] = pH tuning study, selectivity for Hg^2+ over 11 other metal ions (fluorescence quenching); conditions: 1.0 μM Compound 1, 11 metal ions each 5 μM, 2.0 μM Hg^2+, pH 4, 5, 6, 7
Method: The selectivity of the sensor Compound 1 for Hg^2+ over environmentally relevant alkali, alkaline earth and transition metal ions (K^+, […], Mg^2+, Ca^2+, Ba^2+, Zn^2+, Fe^2+, Ni^2+, Cd^2+, Pb^2+, Cu^2+) was investigated in different pH solution pH=4, 5, NaOAc 0.02M buffer, pH=6, PBS 0.02M buffer, pH 7 water (panel A pH 4.0, panel B pH 5.0, panel C pH 6.0, panel D pH 7.0). Fluorescence spectra of a 1.0 μM Compound 1 solution in the absence (A line) and presence (B line) of a mixture of all 11 metal ions (each 5 μM).

[3] = Temperature effect on fluorescence quenching by Hg^2+; conditions: one point assay, 1.0 μM Compound 1, 2.0 μM Hg^2+, 596 nm, varying temperatures
Excerpt: New sensors could be used to test water sources in quite different locations, at different seasons, and from diverse water sources.

[4] = Solubility in various solvents; assay type: physicochemical
Method: Compound 1 is a dark red color solid with solubility in water about 30 μM, much higher than detection concentration (0.3˜5 μM) that is commonly used in fluorometer or portable detector. Various solvents have been tested in the following table. For transferring Compound 1 as aliquots, ethanol-dichloromethane (DCM) (5:1) is a good solvent giving good solubility and easy evaporation of solvent.

[5] = Storage stability of metal sensor solution in HDPE/LDPE squeeze bottles; assay type: physicochemical; conditions: 7.4 μM in 50% glycerol-water, on shelf in room and outside in shade
Method: High density polyethylene (HDPE) and low density polyethylene (LDPE) squeeze bottles were used to store metal sensor solutions (7.4 μM Compound 1). One pair of HDPE and LDPE bottles was stored on shelf in room, and the other pair of bottles was stored outside in shade. Compound 1 is very stable in 50% glycerol-water without obvious change of absorbance and fluorescence spectra at least for 6 weeks.

[6] = Linear fluorescence detection response and detection limit for Hg^2+; conditions: 0.3 μM of Compound 1; corresponding to a 1% decrease of fluorescence intensity
Method: Linear detection response for Hg^2+ was determined/established for several concentrations of Compound 1. A linear detection response of Hg^2+ in the range 0 to 18 ppb for 0.3 μM of Compound 1 and a detection limit of 0.4 ppb for Hg^2+, corresponding to a 1% decrease of fluorescence intensity was determined (FIG. 2A).

Cc1cn([C@@H]2C[C@@H](O)[C@H](CNC(=O)CCN3C(=O)c4cc(Oc5cccnc5)c5c6c(Oc7cccnc7)cc7c8c(cc(Oc9cccnc9)c(c9c(Oc%10cccnc%10)cc(c4c59)C3=O)c86)C(=O)N(CCC(=O)NC[C@H]3O[C@@H](n4cc(C)c(=O)[nH]c4=O)C[C@@H]3O)C7=O)O2)c(=O)[nH]c1=O [Compound 1, N-(((2R,3S,5R)-3-hydroxy-5-(5-methyl-2,4-dioxo-3,4-dihydropyrimidin-1(2H)-yl)tetrahydrofuran-2-yl)methyl)-3-(9-(3-((((2S,3R,5S)-3-hydroxy-5-(5-methyl-2,4-dioxo-3,4-dihydropyrimidin-1(2H)-yl)tetrahydrofuran-2-yl)methyl)amino)-3-oxopropyl)-1,3,8,10-tetraoxo-5,6,12,13-tetrakis(pyridin-3-yloxy)-9,10-dihydroanthra[2,1,9-def:6,5,10-d′e′f′]diisoquinolin-2(1H,3H,8H)-yl)propanamide]
ε (extinction coefficient) ([1]; 15% Glycerol-H2O): 15000 M⁻¹ cm⁻¹ | λmax,abs ([1]; 15% Glycerol-H2O): 564 nm | λmax,flu ([1]; 15% Glycerol-H2O): 598 nm | ε (extinction coefficient) ([1]; 30% Glycerol-H2O): 16970 M⁻¹ cm⁻¹ | λmax,abs ([1]; 30% Glycerol-H2O): 566 nm | λmax,flu ([1]; 30% Glycerol-H2O): 598 nm | ε (extinction coefficient) ([1]; 50% Glycerol-H2O): 16330 M⁻¹ cm⁻¹ | λmax,abs ([1]; 50% Glycerol-H2O): 565 nm | λmax,flu ([1]; 50% Glycerol-H2O): 598 nm | ε (extinction coefficient) ([1]; DMF-H2O (7:3)): 18900 M⁻¹ cm⁻¹ | λmax,abs ([1]; DMF-H2O (7:3)): 561 nm | λmax,flu ([1]; DMF-H2O (7:3)): 595 nm | ε (extinction coefficient) ([1]; Ethanol): 12830 M⁻¹ cm⁻¹ | λmax,abs ([1]; Ethanol): 557 nm | λmax,flu ([1]; Ethanol): 594 nm | ε (extinction coefficient) ([1]; Ethanol-DCM (5:1)): 16000 M⁻¹ cm⁻¹ | λmax,abs ([1]; Ethanol-DCM (5:1)): 558 nm | λmax,flu ([1]; Ethanol-DCM (5:1)): 595 nm | ε (extinction coefficient) ([1]; H2O): 12375 M⁻¹ cm⁻¹ | λmax,abs ([1]; H2O): 563 nm | λmax,flu ([1]; H2O): 595 nm | ε (extinction coefficient) ([1]; Isopropanol): 15200 M⁻¹ cm⁻¹ | λmax,abs ([1]; Isopropanol): 561 nm | λmax,flu ([1]; Isopropanol): 594 nm | fluorescence response on addition of Hg^2+ to mixture of 11 metal ions [2]: fluorescence quenching | temperature effect on quenching efficiency [3]: small, but potentially significant, effect | solubility ([4]; 15% glycerol in water, aqueous with cosolvent or surfactant or cyclodextrin, 15% Glycerol-H2O): ~50 µM (≈ 67.7 µg/mL) | solubility ([4]; 30% glycerol in water, aqueous with cosolvent or surfactant or cyclodextrin, 30% Glycerol-H2O): > 86 µM | solubility ([4]; 30% propylene glycol in water, aqueous with cosolvent or surfactant or cyclodextrin, 30% Propylene glycol-H2O): > 86 µM | solubility ([4]; 50% glycerol in water, aqueous with cosolvent or surfactant or cyclodextrin, 50% Glycerol-H2O): > 86 µM | solubility ([4]; 50% propylene glycol in water, aqueous with cosolvent or surfactant or cyclodextrin, 50% Propylene glycol-H2O): > 86 µM | solubility ([4]; DMF, organic solvent or mixture): > 200 µM | solubility ([4]; DMF-water (7:3), organic solvent or mixture, DMF-H2O (7:3)): > 200 µM | solubility ([4]; ethanol, organic solvent or mixture): ~100 µM (≈ 135 µg/mL) | solubility ([4]; ethanol-dichloromethane (5:1), organic solvent or mixture, Ethanol-DCM (5:1)): > 342 µM | solubility ([4]; isopropanol, organic solvent or mixture): > 86 µM | solubility ([4]; water): ~30 µM (≈ 40.6 µg/mL) | stable without obvious change of absorbance and fluorescence spectra [5]: ≥ 6 weeks | detection limit for Hg^2+ [6]: 0.4 ppb
